Experimental data as given in patent US7601686B2, “Hepatitis C virus inhibitors” (Bristol-Myers Squibb Company, priority 2005, dated 2009).
pIC50: −log10 of the molar value.

Columns and labels:
[1] = biological target: T1, porcine pancreatic elastase (PPE) (Sus scrofa, UniProt P00772); assay: Specificity assay, porcine pancreatic elastase; assay type: biochemical; details: 2 h enzyme-inhibitor pre-incubation; read-out: PPE activity in the specificity assays
T1 construct: purchased Sigma
Method: The specificities of compounds of the present disclosure were determined against a variety of serine proteases: human neutrophil elastase (HNE), porcine pancreatic elastase (PPE) and human pancreatic chymotrypsin and one cysteine protease: human liver cathepsin B. In all cases a 96-well plate format protocol using colorimetric p-nitroaniline (pNA) substrate specific for each enzyme was used as described previously (PCT Patent Application No. WO 00/09543) with some modifications to the serine protease assays. All enzymes were purchased from Sigma while the substrates were from Bachem.
Each assay included a 2 h enzyme-inhibitor pre-incubation at room temperature followed by addition of substrate and hydrolysis to ˜30% conversion as measured on a Spectramax Pro microplate reader. Compound concentrations varied from 100 to 0.4 μM depending on their potency.
The final conditions for each assay were the same as those described in WO 03/099274, page 623.
The percentage of inhibition was calculated using the formula: [1−((UVinh−UVblank)/(UVctl−UVblank))]×100
A non-linear curve fit was applied to the inhibition-concentration data, and the 50% effective concentration (IC50) was calculated by the use of Excel XLfit software.

[2] = biological target: T2, HCV NS3/4A protease complex, J4L6S strain (Hepatitis C virus genotype 1b, UniProt O92972, C1454S/C1711G); assay: FRET peptide assay to monitor HCV NS3/4A proteolytic activity (J4L6S strain); assay type: biochemical
T2 construct: recombinant HCV NS3/4A protease complex (amino acids 1027 to 1711) for these strains; inferred from pET21b vector and Ni-NTA purification; made in house; host or cells: Escherichia coli BL21 (DE3), pET21b
T2 sequence (O92972 1027-1711 C1454S/C1711G, one chain of several): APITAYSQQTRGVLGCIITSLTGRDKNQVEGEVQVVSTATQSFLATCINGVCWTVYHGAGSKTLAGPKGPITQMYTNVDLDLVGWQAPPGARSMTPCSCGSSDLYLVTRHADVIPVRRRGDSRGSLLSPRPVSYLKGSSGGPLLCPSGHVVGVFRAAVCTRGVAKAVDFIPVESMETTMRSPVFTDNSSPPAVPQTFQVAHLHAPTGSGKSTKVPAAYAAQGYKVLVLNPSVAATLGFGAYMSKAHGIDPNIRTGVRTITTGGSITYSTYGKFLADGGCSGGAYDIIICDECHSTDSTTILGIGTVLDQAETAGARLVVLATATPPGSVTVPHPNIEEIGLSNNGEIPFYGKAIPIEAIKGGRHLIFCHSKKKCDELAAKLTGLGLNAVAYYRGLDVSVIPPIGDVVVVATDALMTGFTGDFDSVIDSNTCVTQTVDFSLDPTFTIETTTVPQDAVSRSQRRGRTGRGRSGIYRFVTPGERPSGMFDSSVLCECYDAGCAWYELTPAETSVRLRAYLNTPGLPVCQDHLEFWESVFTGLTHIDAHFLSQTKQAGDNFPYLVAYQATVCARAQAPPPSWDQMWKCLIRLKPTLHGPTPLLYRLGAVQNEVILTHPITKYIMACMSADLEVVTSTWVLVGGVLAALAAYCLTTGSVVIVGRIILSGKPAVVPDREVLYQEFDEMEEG
Source text: Generation of Recombinant HCV NS3/4A Protease Complex
HCV NS3 protease complexes, derived from the BMS strain, H77 strain or J4L6S strain, were generated, as described below. These purified recombinant proteins were generated for use in a homogeneous assay (see below) to provide an indication of how effective compounds of the present disclosure would be in inhibiting HCV NS3 proteolytic activity.
Serum from an HCV-infected patient was obtained from Dr. T. Wright, San Francisco Hospital. An engineered full-length cDNA (compliment deoxyribonucleic acid) template of the HCV genome (BMS strain) was constructed from DNA fragments obtained by reverse transcription-PCR (RT-PCR) of serum RNA (ribonucleic acid) and using primers selected on the basis of homology between other genotype 1a strains. From the determination of the entire genome sequence, a genotype 1a was assigned to the HCV isolate according to the classification of Simmonds et al. (See P Simmonds, K A Rose, S Graham, S W Chan, F McOmish, B C Dow, E A Follett, P L Yap and H Marsden, J. Clin. Microbiol., 31(6), 1493-1503 (1993)). […]

T1 sequence (P00772 27-266): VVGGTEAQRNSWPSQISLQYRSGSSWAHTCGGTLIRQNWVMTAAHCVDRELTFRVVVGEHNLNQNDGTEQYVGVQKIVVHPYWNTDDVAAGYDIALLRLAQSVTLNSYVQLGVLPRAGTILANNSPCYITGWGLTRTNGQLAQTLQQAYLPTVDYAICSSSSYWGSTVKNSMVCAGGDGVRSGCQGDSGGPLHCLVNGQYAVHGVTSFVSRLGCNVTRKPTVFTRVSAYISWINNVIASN

C=CC1CC1(NC(=O)[C@@H]1C[C@@H](NC(=O)c2cc(-c3ccccc3)nc3ccccc23)CN1C(=O)[C@@H](NC(=O)CC1CC1)C(C)(C)C)C(=O)NS(=O)(=O)C1CC1 (some centres unmarked) [Compound 9]
pIC50 [1]: < 4.00 | pIC50 [2]: 7.52
